Measured values reported in patent publication US20110182850A1, “ORGANIC COMPOUNDS AND THEIR USES” (priority 2009, published 2011).

What follows are compounds tested against T1, HCV NS3-4A serine protease (full-length NS3-4A protein, genotype 1a, strain HCV-1) (Hepatitis C virus genotype 1a, UniProt P26664) (assay: HCV NS3-4A protease assay). Conditions: Protease IC50.
T1 construct: using the full-length NS3-4A protein (genotype 1a, strain HCV-1)
Format: biochemical
Protocol: The inhibitory activity of certain compounds of Table A against HCV NS3-4A serine protease is determined in a homogenous assay using the full-length NS3-4A protein (genotype 1a, strain HCV-1) and a commercially available internally-quenched fluorogenic peptide substrate as described by Taliani, M., et al. 1996 Anal. Biochem. 240:60-67, which is incorporated by reference in its entirety.

T1 sequence (P26664 1658-1711): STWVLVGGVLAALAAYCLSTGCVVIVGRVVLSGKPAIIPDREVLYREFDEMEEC
T1 sequence (P26664 1027-1657): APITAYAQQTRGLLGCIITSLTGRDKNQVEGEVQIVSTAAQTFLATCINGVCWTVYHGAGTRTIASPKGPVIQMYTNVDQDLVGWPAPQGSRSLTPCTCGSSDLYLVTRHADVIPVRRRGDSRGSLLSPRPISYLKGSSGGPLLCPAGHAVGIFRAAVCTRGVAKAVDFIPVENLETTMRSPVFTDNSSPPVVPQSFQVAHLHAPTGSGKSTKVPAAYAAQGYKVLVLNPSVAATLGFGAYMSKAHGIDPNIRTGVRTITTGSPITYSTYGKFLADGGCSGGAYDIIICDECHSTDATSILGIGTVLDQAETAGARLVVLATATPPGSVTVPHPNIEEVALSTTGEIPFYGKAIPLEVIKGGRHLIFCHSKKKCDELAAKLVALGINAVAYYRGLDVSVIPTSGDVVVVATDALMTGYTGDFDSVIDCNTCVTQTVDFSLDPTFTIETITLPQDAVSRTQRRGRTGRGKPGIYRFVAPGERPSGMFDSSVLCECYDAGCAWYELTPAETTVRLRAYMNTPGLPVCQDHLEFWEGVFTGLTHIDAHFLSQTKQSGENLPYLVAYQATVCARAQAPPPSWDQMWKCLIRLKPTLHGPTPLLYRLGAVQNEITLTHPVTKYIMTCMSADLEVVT

Row | Compound | IC50
1 | C=C1CC(NC(=O)[C@@H]2C[C@@]3(CN2C(=O)[C@@H](NC(=O)[C@@H](NC(=O)[C@@H]2CCCCN2C(C)C)C(C)(C)C)C(C)(C)C)C(C)(C)C32CCC2)(C(=O)NS(=O)(=O)C2CC2)C1 [Compound 132, (5R,8S)-N-{1-[(cyclopropylsulfonyl)carba-moyl]-3-methylenecyclobutyl}-7-[(2S)-2-{[(2S)-2-({[(2S)-1-isopropylpiperidin-2-yl]carbonyl}amino)-3,3-dimethylbutanoyl]amino}-3,3-dimethylbutanoyl]-10,10-dimethyl-7-azadispiro[3.0.4.1]decane-8-carboxamide] | 1300 nM
2 | C=C[C@@H]1C[C@]1(NC(=O)[C@@H]1C[C@@]2(CN1C(=O)[C@@H](NC(=O)[C@@H](NC(=O)c1cnco1)C1CCCCC1)C(C)(C)C)C(C)(C)C21CCC1)C(=O)NS(=O)(=O)C1CC1 [Compound 113, (5R,8S)-7-[(2S)-2-({(2S)-2-cyclohexyl-2-[(1,3-oxazol-5-ylcarbonyl)amino]acetyl}amino)-3,3-dimethylbutanoyl]-N-{(1R,2S)-1-[(cyclopropylsulfonyl)carba-moyl]-2-vinylcyclopropyl}-10,10-dimethyl-7-azadispiro[3.0.4.1]decane-8-carboxamide] | 2.5 nM
3 | C=C[C@@H]1C[C@]1(NC(=O)[C@@H]1C[C@@]2(CN1C(=O)[C@@H](NC(=O)[C@@H](NC(=O)[C@H]1CCC(=O)N1)C1CCCCC1)C(C)(C)C)C(C)(C)C21CCC1)C(=O)NS(=O)(=O)C1CC1 [Compound 111, (5R,8S)-7-[(2S)-2-{[(2S)-2-cyclohexyl-2-({[(2R)-5-oxopyrrolidin-2-yl]carbonyl}amino)acetyl]amino}-3,3-dimethylbutanoyl]-N-{(1R,2S)-1-[(cyclopropylsulfonyl)carba-moyl]-2-vinylcyclopropyl}-10,10-dimethyl-7-azadispiro[3.0.4.1]decane-8-carboxamide] | 2 nM
4 | C=C[C@@H]1C[C@]1(NC(=O)[C@@H]1C[C@@]2(CN1C(=O)[C@@H](NC(=O)C(NC(=O)c1nccc3ccccc13)C1CCCCC1)C(C)(C)C)C(C)(C)C21CCC1)C(=O)NS(=O)(=O)C1CC1 (stereo partly drawn) [Compound 127, (5R,8S)-7-[(2S)-2-({cyclohexyl[(isoquinolin-1-ylcarbonyl)amino]acetyl}amino)-3,3-dimethylbutanoyl]-N-{(1R,2S)-1-[(cyclopropylsulfonyl)carba-moyl]-2-vinylcyclopropyl}-10,10-dimethyl-7-azadispiro[3.0.4.1]decane-8-carboxamide] | 8 nM
5 | C=C[C@@H]1C[C@]1(NC(=O)[C@@H]1C[C@@]2(CN1C(=O)[C@@H](NC(=O)[C@@H](NC(=O)C1CNC(=O)N1)C(C)(C)C)C(C)(C)C)C(C)(C)C21CCC1)C(=O)NS(=O)(=O)C1CC1 (stereo partly drawn) [Compound 40, (5R,8S)-N-{(1R,2S)-1-[(cyclopropylsulfonyl)carba-moyl]-2-vinylcyclopropyl}-7-[(2S)-2-{[(2S)-3,3-dimethyl-2-{[(2-oxoimidazolidin-4-yl)carbonyl]amino}butanoyl]amino}-3,3-dimethylbutanoyl]-10,10-dimethyl-7-azadispiro[3.0.4.1]decane-8-carboxamide] | 10 nM
6 | C=C[C@@H]1C[C@]1(NC(=O)[C@@H]1C[C@@]2(CN1C(=O)[C@@H](NC(=O)[C@H]1NC(=O)[C@@H]3CCCCN3CCCCCCC1(C)C)C(C)(C)C)C(C)(C)C21CCC1)C(=O)NS(=O)(=O)C1CC1 [Compound 53, (5R,8S)-N-{(1R,2S)-1-[(cyclopropylsulfonyl)carba-moyl]-2-vinylcyclopropyl}-7-[(2S)-2-({[(3S,15aS)-4,4-dimethyl-1-oxotetradecahydro-2H-pyrido[1,2-a][1,4]diazacyclododecin-3-yl]carbonyl}amino)-3,3-dimethylbutanoyl]-10,10-dimethyl-7-azadispiro[3.0.4.1]decane-8-carboxamide] | 3.5 nM
7 | CC[C@@H]1C[C@]1(NC(=O)[C@@H]1C[C@@]2(CN1C(=O)[C@@H](NC(=O)[C@@H](NC(=O)c1cnccn1)C(C)(C)C)C(C)(C)C)C(C)(C)C21CCC1)C(=O)NS(=O)(=O)C1CC1 [Compound 134, (5R,8S)-N-{(1R,2R)-1-[(cyclopropylsulfonyl)carba-moyl]-2-ethylcyclopropyl}-7-[(2S)-2-({(2S)-3,3-dimethyl-2-[(pyrazin-2-ylcarbonyl)amino]butanoyl}amino)-3,3-dimethylbutanoyl]-10,10-dimethyl-7-azadispiro[3.0.4.1]decane-8-carboxamide] | 40 nM
8 | C=CCC1(S(=O)(=O)NC(=O)[C@@]2(NC(=O)[C@@H]3C[C@@]4(CN3C(=O)[C@@H](NC(=O)[C@@H](NC(=O)[C@@H]3CCCCN3C(C)C)C3CCCCC3)C(C)(C)C)C(C)(C)C43CCC3)C[C@H]2C=C)CC1 [Compound 144, (5R,8S)-N-[(1R,2S)-1-{[(1-allylcyclopropyl)sulfonyl]carba-moyl}-2-vinylcyclopropyl]-7-[(2S)-2-{[(2S)-2-cyclohexyl-2-({[(2S)-1-isopropylpiperidin-2-yl]carbonyl}amino)acetyl]amino}-3,3-dimethylbutanoyl]-10,10-dimethyl-7-azadispiro[3.0.4.1]decane-8-carboxamide] | 1 nM
9 | C=C[C@@H]1C[C@]1(NC(=O)[C@@H]1C[C@@]2(CN1C(=O)[C@@H](NC(=O)[C@@H](NC(=O)[C@@H]1CCCN(CCF)C1)C(C)(C)C)C(C)(C)C)C(C)(C)C21CCC1)C(=O)NS(=O)(=O)C1CC1 [Compound 8, (5R,8S)-N-{(1R,2S)-1-[(cyclopropylsulfonyl)carba-moyl]-2-vinylcyclopropyl}-7-[(2S)-2-{[(2S)-2-({[(3R)-1-(2-fluoroethyl)piperidin-3-yl]carbonyl}amino)-3,3-dimethylbutanoyl]amino}-3,3-dimethylbutanoyl]-10,10-dimethyl-7-azadispiro[3.0.4.1]decane-8-carboxamide] | 25 nM

Same assay, conditions: read-out: Protease IC50

Row | Compound | IC50
10 | C=C[C@@H]1C[C@]1(NC(=O)[C@@H]1C[C@@]2(CN1C(=O)[C@@H](CC(=O)OC(C)(C)C)C(C)(C)C)C(C)(C)C21CCC1)C(=O)NS(=O)(=O)C1CC1 [Compound 43, tert-butyl (3S)-3-{[(5R,8S)-8-({(1R,2S)-1-[(cyclopropylsulfonyl)carba-moyl]-2-vinylcyclopropyl}carbamoyl)-10,10-dimethyl-7-azadispiro[3.0.4.1]dec-7-yl]carbonyl}-4,4-dimethylpentanoate] | 450 nM
11 | (5R,8S)-N-{(1R,2S)-1- [(cyclopropylsulfonyl)carba- moyl]-2-vinylcyclopropyl}-7- [(2S)-2-({(2S)-3,3-dimethyl- 2-[(piperidin-1- ylcarbonyl)amino]butanoyl} amino)-3,3-dimethylbutanoyl]- 10,10-dimethyl-7- azadispiro[3.0.4.1]decane-8- carboxamide [Compound 57] | 25 nM
12 | C=C[C@@H]1C[C@]1(NC(=O)[C@@H]1C[C@@]2(CN1C(=O)[C@@H](NC(=O)N[C@H](CC(=O)N(C)C)C(C)(C)C)C(C)(C)C)C(C)(C)C21CCC1)C(=O)NS(=O)(=O)C1CC1 [Compound 33, (5R,8S)-N-{(1R,2S)-1-[(cyclopropylsulfonyl)carba-moyl]-2-vinylcyclopropyl}-7-{(2S)-2-[({(1R)-1-[2-(dimethylamino)-2-oxoethyl]-2,2-dimethylpropyl}carbamoyl)amino]-3,3-dimethylbutanoyl}-10,10-dimethyl-7-azadispiro[3.0.4.1]decane-8-carboxamide] | 1400 nM
13 | C=C[C@@H]1C[C@]1(NC(=O)[C@@H]1C[C@@]2(CN1C(=O)[C@@H](NC(=O)N[C@H](C(=O)N(C)C)C(C)(C)C)C(C)(C)C)C(C)(C)C21CCC1)C(=O)NS(=O)(=O)C1CC1 [Compound 30, (5R,8S)-N-{(1R,2S)-1-[(cyclopropylsulfonyl)carba-moyl]-2-vinylcyclopropyl}-7-[(2S)-2-({[(1S)-1-(dimethylcarbamoyl)-2,2-dimethylpropyl]carbamoyl}amino)-3,3-dimethylbutanoyl]-10,10-dimethyl-7-azadispiro[3.0.4.1]decane-8-carboxamide] | 8 nM
14 | C=C[C@@H]1C[C@]1(NC(=O)[C@@H]1C[C@@]2(CN1C(=O)[C@@H](NC(=O)c1ccc3cnccc3n1)C(C)(C)C)C(C)(C)C21CCC1)C(=O)NS(=O)(=O)C1CC1 [Compound 11, (5R,8S)-N-{(1R,2S)-1-[(cyclopropylsulfonyl)carba-moyl]-2-vinylcyclopropyl}-7-{(2S)-3,3-dimethyl-2-[(1,6-naphthyridin-2-ylcarbonyl)amino]butanoyl}-10,10-dimethyl-7-azadispiro[3.0.4.1]decane-8-carboxamide] | 200 nM
15 | C=C[C@@H]1C[C@]1(NC(=O)[C@@H]1C[C@@]2(CN1C(=O)[C@@H](NS(=O)(=O)c1nccn1C)C(C)(C)C)C(C)(C)C21CCC1)C(=O)NS(=O)(=O)C1CC1 [Compound 13, (5R,8S)-N-{(1R,2S)-1-[(cyclopropylsulfonyl)carba-moyl]-2-vinylcyclopropyl}-7-[(2S)-3,3-dimethyl-2-{[(1-methyl-1H-imidazol-2-yl)sulfonyl]amino}butanoyl]-10,10-dimethyl-7-azadispiro[3.0.4.1]decane-8-carboxamide] | 250 nM
16 | C=C[C@@H]1C[C@]1(NC(=O)[C@@H]1C[C@@]2(CN1C(=O)[C@@H](NC(=O)[C@@H](NS(=O)(=O)c1ncn[nH]1)C(C)(C)C)C(C)(C)C)C(C)(C)C21CCC1)C(=O)NS(=O)(=O)C1CC1 [Compound 49, (5R,8S)-N-{(1R,2S)-1-[(cyclopropylsulfonyl)carba-moyl]-2-vinylcyclopropyl}-7-[(2S)-2-({(2S)-3,3-dimethyl-2-[(1H-1,2,4-triazol-5-ylsulfonyl)amino]butanoyl}amino)-3,3-dimethylbutanoyl]-10,10-dimethyl-7-azadispiro[3.0.4.1]decane-8-carboxamide] | 200 nM
